The supplement of paper PMC10307832

Key:
Assay in all cases: relative viability (nuclei count vs DMSO), 5 days (fraction); higher = more cells survive
[1] = compound: C(C(=O)C(=O)O)Br [Bromopyruvate] + NC(=O)Nc1cc(-c2cccc(F)c2)sc1C(=O)N[C@H]1CCCNC1 [AZD7762] (partner 0.2 µM)
Summary of the method: (§1)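 Lung cancer cell lines in 1536-well plates got either a single drug or a fixed anchor-drug dose together with five library-drug doses (not always all listed) in √10 steps, by pin tool, on the day after seeding. Nuclei were counted after 5 days, and relative viability is the treated-to-vehicle ratio of nuclei counts. Values are medians of duplicate plates.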

[2] = compound: CC(O)(CS(=O)(=O)c1ccc(F)cc1)C(=O)Nc1ccc(C#N)c(C(F)(F)F)c1 [Bicalutamide] + N=C(N)NC(=N)NCCc1ccccc1 [Phenformin] (partner 250 µM)
Summary of the method: as §1

[3] = compound: C(C(=O)C(=O)O)Br [Bromopyruvate] + CS(=O)(=O)N1CCN(Cc2cc3nc(-c4cccc5[nH]ncc45)nc(N4CCOCC4)c3s2)CC1 [Pictilisib] (partner 1 µM)
Summary of the method: as §1

[4] = compound: C(C(=O)C(=O)O)Br [Bromopyruvate] + CC(=O)Nc1cccc(-n2c(=O)n(C3CC3)c(=O)c3c(Nc4ccc(I)cc4F)n(C)c(=O)c(C)c32)c1 [Trametinib] (partner 0.02 µM)
Summary of the method: as §1

EPLC-272H
relative viability ([1]; first compound 1 µM): 0.236
relative viability ([1]; first compound 3.162 µM): 0.205
relative viability ([1]; first compound 10 µM): 0.346
relative viability ([1]; first compound 31.62 µM): 0.313
relative viability ([1]; first compound 100 µM): 0.258
relative viability ([2]; first compound 0.08 µM): 0.34
relative viability ([2]; first compound 0.253 µM): 0.274
relative viability ([2]; first compound 0.8 µM): 0.311
relative viability ([2]; first compound 2.53 µM): 0.315
relative viability ([3]; first compound 1 µM): 0.32
relative viability ([3]; first compound 3.162 µM): 0.363
relative viability ([3]; first compound 10 µM): 0.266
relative viability ([3]; first compound 31.62 µM): 0.323
relative viability ([3]; first compound 100 µM): 0.296
relative viability ([4]; first compound 1 µM): 0.266
relative viability ([4]; first compound 3.162 µM): 0.278
relative viability ([4]; first compound 10 µM): 0.341
relative viability ([4]; first compound 31.62 µM): 0.302
relative viability ([4]; first compound 100 µM): 0.289
